In patent US6521661B1, “Cyclic peroxides as novel antifungal agents” (Harbor Branch Oceanographic Institution, Inc., priority 2000, dated 2003):
Converted amounts (≈) assume the structure as drawn.

Experiments:
[1] = system: Aspergillus fumigatus; experiment: Antifungal microtiter broth assay; assay type: cell-based; settings: 48 hours, 37° C., RPMI medium, scored visually
Method: Preparation of Stock Cultures of Aspergillus fumigatus. Freeze-dried A. fumigatus stocks (ATCC 16424) were resuspended in 1 mL sterile distilled, de-ionized water. Slants were made with five mL of MPG agar (2% (w/v) malt extract, 2% (w/v) glucose, 0.1% (w/v) bacto-peptone, 1.5% (w/v) agar) in 16×125 mm disposable glass culture tubes, inoculated with approximately 50 μL of the above cell suspension, incubated at 25° C. for 7 days and then frozen at −80° C. To prepare glycerol stocks, a slant was thawed and conidia were resuspended in 5 mL sterile distilled, de-ionized water. Two hundred mL of MPG agar (2% (w/v) malt extract, 2% (w/v) glucose, 0.1% (w/v) bacto-peptone, 1.5% (w/v) agar) in a 1000 mL Ehrlenmeyer flask were inoculated with this 5 mL cell suspension, incubated 5-7 days at 37° C., and then frozen at −20° C. This flask was thawed and conidia were resuspended in 20 mL of sterile distilled, de-ionized water. Sufficient glycerol was added to this 20 mL suspension to make a 10% (v/v) solution (final concentration). This solution was aliquoted in 1 mL portions, frozen on dry ice, and stored at −50° C. A thawed glycerol stock was used to inoculate 96-well microtiter plates at 2×10^4 conidia per 200 μL per well in liquid RPMI medium (RPMI-1640 [Gibco], 0.165 M MOPS, pH 7.0).
(§1) Each well of a 96-well microtiter plate contained 200 μL of inoculum of C. albicans or A. fumigatus and 0.1 to 125 μg/mL of marine extract in DMSO. Controls for each assay were 0.025 to 16 μg/mL of amphotericin B, and 2 μL of DMSO. Culture plates were incubated for 24 or 48 hours (for C. albicans and A. fumigatus respectively) at 37° C., 120 rpm and scored visually using a light microscope. […] Percent inhibition was estimated. The Minimum Inhibitory Concentration was determined. Samples were considered active if they inhibited 50% or more growth.

[2] = biological target: T1, cdc25a (Homo sapiens, UniProt P30304); settings: cited from earlier work
T1 sequence (P30304 1-524): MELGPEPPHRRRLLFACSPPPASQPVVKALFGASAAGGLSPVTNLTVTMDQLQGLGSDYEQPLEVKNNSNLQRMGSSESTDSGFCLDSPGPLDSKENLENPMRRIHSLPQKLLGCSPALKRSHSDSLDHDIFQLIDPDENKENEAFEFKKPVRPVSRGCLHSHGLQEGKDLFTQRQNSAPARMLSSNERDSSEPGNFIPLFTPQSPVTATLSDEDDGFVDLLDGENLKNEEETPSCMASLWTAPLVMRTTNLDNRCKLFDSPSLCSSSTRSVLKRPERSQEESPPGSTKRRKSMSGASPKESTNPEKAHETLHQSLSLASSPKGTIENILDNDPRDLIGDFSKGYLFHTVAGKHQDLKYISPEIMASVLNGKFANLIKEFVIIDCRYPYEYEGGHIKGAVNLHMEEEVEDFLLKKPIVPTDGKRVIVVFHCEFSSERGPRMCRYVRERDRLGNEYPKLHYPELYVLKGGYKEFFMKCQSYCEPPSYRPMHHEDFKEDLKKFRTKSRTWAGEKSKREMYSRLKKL

[3] = system: Candida albicans; experiment: Antifungal microtiter broth assay; assay type: cell-based; settings: 24 hours, 37° C., RPMI medium, scored visually
Method: Preparation of Stocks Cultures of Candida albicans. Freeze-dried C. albicans yeast stocks (ATCC 90028) were each resuspended in 1 mL sterile distilled, de-ionized water. Slants were made with five mL of MPG agar (2% (w/v) malt extract, 2% (w/v) glucose, 0.1% (w/v) bacto-peptone, 1.5% (w/v) agar) in 16×125 mm disposable glass culture tubes, inoculated with approximately […] of the above cell suspension, incubated at 25° C. for 7 days and then frozen at −80° C. To prepare glycerol stocks, a slant was thawed and the yeast cells were resuspended in 5 mL sterile distilled, de-ionized water. This 5 mL cell suspension was used to inoculate 50 mL of Sabouraud Dextrose Broth (3% (w/v) [Gibco]) in a 250 mL Ehrlenmeyer flask and was incubated 18-24 hours at 37° C., 180 rpm. Fifty milliliters of Sabouraud Dextrose Broth in a 250 mL Ehrlenmeyer flask were inoculated with 1×10^7 cells per mL of the previous culture and grown under the same conditions. After 18-24 hours, sufficient glycerol was added to this culture to make a 10% (v/v) solution (final concentration). This solution was aliquoted in 1 mL portions, frozen on dry ice, and stored at −50° C. A thawed glycerol stock was used to inoculate 50 mL Sabouraud's Dextrose Broth in a 250 mL Ehrlenmeyer flask and grown for 18-24 hours, at 37° C., 180 rpm. This culture was used to inoculate 96-well microtiter plates [Nunc] at 2×10^3 cells per 200 μL per well in liquid RPMI medium (RPMI-1640 [Gibco], 0.165 M MOPS, pH 7.0).
as §1

[4] = system: S. cerevisiae; settings: at 100 mg/disk; cited from earlier work
[5] = system: P. atrovenetum; settings: at 100 mg/disk; cited from earlier work
[6] = system: cardiac sarcoplasmic reticulum; settings: cited from earlier work
[7] = system: P388 murine leukemia; settings: cited from earlier work
[8] = system: murine leukemia (P388) cells; settings: cited from earlier work

Question: Which results are given for `C[C@]1(CCCCCCCCCCc2ccccc2)C[C@](C)(CC(=O)O)OO1` [Peroxyacid 5, Epiplakinic Acid h]?
Answer: IC50 [1]: 0.5 µg/mL (≈ 1.33 µM); IC90 [1]: 0.5 µg/mL (≈ 1.33 µM); Inhibition of the enzyme cdc25a [2]: inhibitor; IC50 [3]: 0.25 µg/mL (≈ 0.664 µM); IC90 [3]: 0.25 µg/mL (≈ 0.664 µM)

Question: What does the source list for `CC(/C=C/c1ccccc1)C/C=C/C(C)CC1(C)CC(C)(CC(=O)O)OO1` (stereo not shown) [Plakinic acid A]?
Answer: Antifungal activity vs. S. cerevisiae (zone) [4]: 24 mm; Antifungal activity vs. P. atrovenetum (zone) [5]: 25 mm

Question: With Plakortide G as the compound, how does the “Ca2+ uptake by the cardiac sarcoplasmic reticulum” value (“Ca2+ uptake” below) [6] read?
Answer: significantly enhanced

Question: For Plakortide H, which “Ca2+ uptake” value [6] is on record?
Answer: significantly enhanced

Question: For `CC(/C=C/c1ccccc1)C/C=C/C(C)C[C@]1(C)C[C@H](C)[C@@H](CC(=O)O)OO1` (stereo partly shown) [Plakinic acid B], which “Antifungal activity vs. S. cerevisiae (zone)” value [4] is on record?
Answer: 20 mm

Question: And the “Antifungal activity vs. P. atrovenetum (zone)” value [5]?
Answer: 18 mm

Question: Which “Ca2+ uptake” value [6] does the source give for `CC/C=C/C(CC)CCC[C@@]1(CC)C[C@H](CC)[C@H](CC(=O)OC)OO1` (stereo partly shown) [Plakortide F] here?
Answer: significantly enhanced

Question: What does the source list for `CC/C=C/C=C/C=C/CCCCCCCC[C@]1(C)C[C@](C)(CC(=O)O)OO1` [Peroxyacid 1]?
Answer: IC50 [1]: 25 µg/mL (≈ 66 µM); IC90 [1]: 25 µg/mL (≈ 66 µM); IC50 [3]: 25 µg/mL (≈ 66 µM); IC90 [3]: 25 µg/mL (≈ 66 µM)

Question: For `CC(CCCCCC/C=C/C=C/c1ccccc1)C[C@]1(C)C[C@](C)(CC(=O)O)OO1` (stereo partly shown) [Peroxyacid 4], which IC50 [1] is on record?
Answer: 31.2 µg/mL (≈ 75.3 µM)

Question: What about the IC90 [1] of the same compound?
Answer: 31.2 µg/mL (≈ 75.3 µM)

Question: And the IC50 [3]?
Answer: 31.2 µg/mL (≈ 75.3 µM)

Question: And the IC90 [3]?
Answer: 31.2 µg/mL (≈ 75.3 µM)

Question: For `CC(CCCCCC/C=C/C=C/c1ccccc1)C[C@]1(C)C[C@@](C)(CC(=O)O)OO1` (stereo partly shown) [Peroxyacid 3], which IC50 [1] is on record?
Answer: 62.5 µg/mL (≈ 151 µM)

Question: And the IC90 [1]?
Answer: 62.5 µg/mL (≈ 151 µM)

Question: And the IC50 [3]?
Answer: 31.2 µg/mL (≈ 75.3 µM)

Question: What about the IC90 [3] of the same compound?
Answer: 62.5 µg/mL (≈ 151 µM)

Question: Which “IC50 against P388 murine leukemia” value [7] does the source give for `CC/C=C/C(CC)CC(C)CC1(CC)C[C@H](CC)[C@H](CC(=O)O)OO1` (stereo partly shown) here?
Answer: 0.5 mg/mL (≈ 1410 µM)

Question: With `CC/C=C/C(CC)C/C=C/[C@@]1(CC)C[C@H](CC)[C@@H](CC(=O)O)OO1` (stereo partly shown) [Peroxyacid 6] as the compound, how does the IC50 [1] read?
Answer: 5.6 µg/mL (≈ 16.5 µM)

Question: And the IC90 [1]?
Answer: 5.6 µg/mL (≈ 16.5 µM)

Question: And the IC50 [3]?
Answer: 2 µg/mL (≈ 5.91 µM)

Question: What about the IC90 [3] of the same compound?
Answer: 3.9 µg/mL (≈ 11.5 µM)

Question: What does the source list for `CC/C=C/C=C/C=C/CCCCCCCC[C@]1(C)C[C@@](C)(CC(=O)O)OO1` [Peroxyacid 2]?
Answer: IC50 [1]: 25 µg/mL (≈ 66 µM); IC90 [1]: 25 µg/mL (≈ 66 µM); IC50 [3]: 25 µg/mL (≈ 66 µM); IC90 [3]: 25 µg/mL (≈ 66 µM)

Question: For `COC(=O)C[C@@]1(C)C[C@](C)(CC(C)CCCCCCc2ccccc2)OO1` (stereo partly shown) [Epiplakinic acid E methyl ester], which “Cytotoxicity against P388 cells” value [8] is on record?
Answer: Cytotoxicity
